Experiments:
Plasmopara viticola = Plasmopara viticola (downy mildew of grapevine), grapevine leaf disk assay, preventive; assay type: in vivo; conditions: foliar, 168 h, 200 ppm, grapevine leaf disks, assessed seven days after inoculation, read-out: control of fungal infection, Plasmopara viticola
Phytophthora infestans = assay: whole plant or invertebrate; assay type: in vivo; conditions: in Solanum lycopersicum, foliar, 96 h, read-out: control of fungal infection, Phytophthora infestans
[1] = test system: Erysiphe graminis f.sp. tritici; assay: Erysiphe graminis f.sp. tritici (wheat powdery mildew), wheat leaf segment assay, preventive; assay type: in vivo; conditions: Blumeria graminis, foliar, 96 h; 200 ppm; wheat leaf segments; assessed four days after inoculation; read-out: control of fungal infection, Etysiphe graminis f.sp. tritici
Pyricularia oryzae = assay: whole plant or invertebrate; assay type: in vivo; conditions: foliar, 96 h, read-out: control of fungal infection, Pyricularia oryzae
[2] = test system: Puccinia recondita f.sp. tritici; assay: Puccinia recondita f.sp. tritici (wheat brown rust), wheat leaf segment assay, preventive; assay type: in vivo; conditions: foliar, 216 h, 200 ppm, wheat leaf segments, assessed nine days after inoculation, read-out: control of fungal infection, Puccinia recondite f.sp. tritici
Septoria nodorum = Septoria nodorum (wheat glume blotch), wheat leaf segment assay, preventive; assay type: in vivo; conditions: Parastagonospora nodorum, foliar, 96 h; 200 ppm; wheat leaf segments; assessed four days after inoculation; read-out: control of fungal infection, Septoria nodorum
Septoria tritici = Septoria tritici (leaf blotch), liquid culture growth inhibition in nutrient broth; assay type: cell-based; conditions: Zymoseptoria tritici; 200 ppm; PDB broth, 24 C; inhibition of growth determined photometrically after 72 hrs; read-out: control of fungal infection, Septoria tritici
Pythium ultimum = Pythium ultimum (Damping off), liquid culture growth inhibition in potato dextrose broth; assay type: cell-based; conditions: Globisporangium ultimum; 20 ppm; potato dextrose broth, 24° C.; inhibition of growth determined photometrically after 48 hours; read-out: control of fungal infection, Pythium ultimum

C#Cc1cnc2ccc(OC(SC)C(=O)NC(C)(C)C=NOCC=C)cc2c1 (centres unmarked) [Compound No. 120, N-(2-Allyloxyimino-1,1-dimethyl-ethyl)-2-(3-ethynyl-quinolin-6-yloxy)-2-methylsulfanyl-acetamide]
≥ 60%: pest or weed control at 200 ppm (Plasmopara viticola) | pest or weed control at 200 ppm (Phytophthora infestans) | pest or weed control at 200 ppm [1] | pest or weed control at 200 ppm (Pyricularia oryzae) | pest or weed control at 200 ppm [2] | pest or weed control at 200 ppm (Septoria nodorum) | inhibition of growth at 200 ppm (Septoria tritici) | inhibition of growth at 20 ppm (Pythium ultimum)

Source: US8507509B2, “Saturated and insaturated bi- or tricyclic aryloxyacetamine derivatives and their use as fungicides” (Syngenta Crop Protection LLC, priority 2007, dated 2013)
